{"source": "patent US20100009860A1", "about": "“Device and method for analysis of interactions between biomolecules” (priority 2004, published 2010)", "key": {"streptavidine [1]": {"test_system": "streptavidine", "settings": "cited from earlier work"}, "streptavidine [2]": {"biological_target": "streptavidine (Streptomyces avidinii, UniProt P22629)", "sequence (P22629 25-183)": "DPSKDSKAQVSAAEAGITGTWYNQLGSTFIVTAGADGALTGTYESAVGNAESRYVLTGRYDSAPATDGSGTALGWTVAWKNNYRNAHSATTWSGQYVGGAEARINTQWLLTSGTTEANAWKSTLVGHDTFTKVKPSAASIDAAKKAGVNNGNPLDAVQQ", "experiment": "Streptavidine/strep-tag II interaction using inhibition with biotine (Western blot, immunodetection)", "format": "binding", "settings": "60 μg streptavidine/6 μg biotine, 1 h pre-incubation", "description": "The cellulose, which was modified with peptide pairs corresponding to the embodiment shown in FIG. 7 by molecular forks MG1, was analyzed using the previously formed biotine/streptavidine-complex (60 μg streptavidine/6 μg biotine, 1 h pre-incubation) followed by Western Blot-analysis and immunodetection. A) Only just one side on the MG1 was attached to oligopeptides of the streptavidine-scans. The other side was modified by an acetylation reaction. B) Only just one side on the MG1 was attached to oligopeptides of the streptavidine-scan, and the strep-tag II-peptide was synthesized on the other side.\nAs described in example 2, peptide pairs were synthesized at the MG2, whereby the constant peptide block strep-tag II was synthesized at the Dde-side. At the Fmoc-side, overlapping 12 mer peptides were synthesized spanning the entire streptavidine-sequence with a 2-aminoacid shift. 60 μg streptavidine were pre-incubated using 6 μg biotine in the MP-buffer (30 mM tris-HCl, pH 7.6, 170 mM NaCl, 6.4 mM KCl, 0.05% Tween 20, 5% sucrose) for 60 min and it was subsequently incubated overnight at 4° C. while shaking with the cellulose. […]\nA densitometric analysis of the intensities of each spot was performed by a GS-700 imaging densitometer (Bio-Rad) for quantifying the signals (FIG. 12)."}, "[3]": {"test_system": "streptavidine-peptide/strep-tag II interaction", "experiment": "Inhibition of streptavidine-peptide/strep-tag II interactions on MG3 peptide-pair array, fluorescence read-out", "format": "binding", "settings": "membrane incubated 30 min with agent (0.5 mM biotine) before analysis; excitation 366 nm, emission 510-530 nm", "description": "The reading of the signal by fluorescence and the inhibition of the streptavidine-peptide/strep-tag II-interactions using the natural product biotine and their derivatives are shown.\nA) The chemical structure of the exemplary molecular fork MG3.\nThe peptide being at the side of Fmoc was marked with a danysl-radical and the peptide being at the Aloc-side was marked with fluoresceine. The analysis was performed by detection of the light emission at 510-530 nm after excitation with light of a wave length of 366 nm using the Raytest DIANA chemiluminescence detection system. […]\nPeptide pairs were synthesized at MG3 (FIG. 17A), whereby the constant peptide block strep-tag II was synthesized at the Aloc-side and marked with a fluoresceine radical. […] Differences in fluorescence properties of the spots were obtained with different peptide pairs, an enhanced fluorescence emission was detected for interacting peptide pairs.\nFor the inhibition of interaction of the peptide pairs, the modified membrane was treated with high-affinated, low-affine and non-affine agents with similar chemical properties before the analysis. […] Subsequently, the analysis of the fluorescence properties of the spots was carried out."}, "FKBP12 [4]": {"biological_target": "T1, FKBP12 (Mus musculus, UniProt P26883)", "T1 sequence (P26883 whole entry, the tested form may be a part)": "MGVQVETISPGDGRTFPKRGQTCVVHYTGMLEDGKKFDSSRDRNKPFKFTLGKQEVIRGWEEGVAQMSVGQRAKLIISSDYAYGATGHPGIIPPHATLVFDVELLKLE", "experiment": "Mapping of FKBP12 binding sites by classical SPOT-technology and protein interaction analysis", "settings": "SPOT peptide scan of FAP48 / cytosolic domain of EGF-receptor", "description": "In a first step, the FKBP12-binding sites in the FAP48 were mapped using classical SPOT-technology and protein interaction analysis.\nIn a first step, the FKBP12 binding sites in the cytosolic domain of the EGF-receptor (EGFR) were mapped by classical SPOT-technology and protein interaction analysis. […] Then, peptide pairs were synthesized at the MG12, as described in example 2, whereby the constant peptide block Ac-PHVCRLLGICLTS was synthesized at the Dde-side. At the Fmoc-side, overlapping 13 mer peptides were synthesized spanning the entwire FKBP12-sequence with a 2-aminoacid shift. In each case 48 individual spots resulted therefrom."}, "FKBP12 [5]": {"biological_target": "T1, FKBP12", "experiment": "Mapping of interaction region with peptide pairs on molecular fork MG2, FKBP12 as detection molecule", "format": "binding", "settings": "200 nM FKBP12, overlapping 13 mer FKBP12 peptides, 2-amino acid shift, cellulose", "description": "A) The cellulose modified with peptide pairs by molecular forks MG2 was analyzed using 200 nM FKBP12 followed by Western Blot-analysis and immunodetection. The constant peptide block acetyl-KCPLLTAQFFEQS of FAP (Lys217-Ser229) was synthesized at the Dde-side. At the Fmoc-side, overlapping 13 mer peptides were synthesized spanning the entire FKBP12-sequence with a 2-amino acid shift. The densitometric analysis was performed using a GS-700 imaging densitometer (Bio-Rad). The ordinate represents the difference from the inverse value of the intensity of each spot and the inverse value of the average spot intensities. Large positive values correspond to a weak signal in the blot and show potential interactions within the peptide pair.\nB) The cellulose modified with peptide pairs by molecular forks MG2 was analyzed using 200 nM FKBP12 followed by the Western Blot-analysis and immunodetection. […] The ordinate represents the difference from the inverse value of the intensity of each analyzed spot and the inverse value of the average spot intensities. […]\nThe cellulose modified with peptide pairs by molecular forks MG2 was analyzed using 200 nM FKBP12 followed by the Western Blot-analysis and immunodetection. […] The ordinate represents the difference from the inverse value of the intensity of each analyzed spot and the inverse value of the average spot intensity. […]"}}, "note": "Ends that are not written are not given here."}
{"compound": "N=C1N[C@H]2[C@H](CS[C@H]2CCCCC(=O)O)N1", "note": "[2-iminobiotine]", "values": [{"measurement": "Ka", "setting": "streptavidine [1]", "result": "8e+06", "unit": "M⁻¹"}]}
{"compound": "O=C(O)CCCC[C@@H]1SC[C@@H]2NC(=O)N[C@@H]21", "note": "[biotine]", "values": [{"measurement": "bond of the streptavidine on the strep-tag II-peptide", "setting": "streptavidine [2]", "result": "blocked"}, {"measurement": "fluorescence emission of the spots (inhibition of peptide pair interaction)", "setting": "[3]", "result": "decreased"}]}
{"compound": "N[C@@H]1[C@H](CCCCC(=O)O)SC[C@@H]1N", "note": "[diaminobiotine]", "values": [{"measurement": "fluorescence emission of the spots (inhibition of peptide pair interaction)", "setting": "[3]", "result": "very similar to the original fluorescence behaviour without a pharmaceutical agent"}]}
{"compound": "KCPLLTAQFFEQS (Ac-KCPLLTAQFFEQS; not fully specified)", "values": [{"measurement": "interaction to FKBP12", "setting": "FKBP12 [4]", "result": "mediate an interaction to FKBP12"}]}
{"compound": "LSPLYLLQFNMGH (Ac-LSPLYLLQFNMGH; not fully specified)", "values": [{"measurement": "interaction to FKBP12", "setting": "FKBP12 [4]", "result": "mediate an interaction to FKBP12"}]}
{"compound": "PHVCRLLGICLTS (Ac-PHVCRLLGICLTS; cysteine pairing not given here)", "values": [{"measurement": "interaction to FKBP12", "setting": "FKBP12 [4]", "result": "particularly strong interacting"}]}
{"compound": "acetyl-PHVCRLLGICLTS (Ac-PHVCRLLGICLTS; cysteine pairing not given here)", "values": [{"measurement": "interaction region in FKBP12", "setting": "FKBP12 [5]", "result": "Met21-Ser67"}]}
